In patent publication US20180346505A1, “MONONUCLEOTIDES HAVING A BIOREVERSIBLE DISULFIDE GROUP” (priority 2014, published 2018):

Legend:
[1] = system: GT3a L159F NS5B mutant replicon; test: HCV NS5B mutant replicon assay, GT3a L159F; assay type: cell-based; details: Hepatitis C virus, Huh-7, 72 h, read-out: GT3a L159F EC50
Description: (§1) The antiviral activity of the test compounds was assessed in the wild type GT1b (Con1), GT1a (H77), and GT1b/2a, GT1b/3a, GT1b/4a and GT1b/5a NS5B chimeric replicons, as well as the NS5B mutant replicons listed in Table 2a and 2b.
(§2) To generate HCV NS5B chimeric replicons, the GT1 b replicon was used as a backbone with the NS5B gene replaced with the NS5B gene of GT2a, GT3a, GT4a and GT5a derived from clinical isolates. These NS5B genes were cloned into the GT1b backbone and were confirmed by sequencing.
(§3) The HCV replicon mutants were generated by site-directed mutagenesis (SDM). The SDM was performed by PCR and the PCR fragments were inserted into the backbone replicon construct. The inserted PCR fragments and the mutants were confirmed by sequencing.
(§4) All the replicon assays were luciferase based in Huh-7 cells, either in stable format (GT1b and GT1a) or by transient transfection by electroporation (chimeric and mutant replicons). For a standard HCV replicon assay, stable or transiently transfected Huh-7 cells were seeded in 96-well plates (5,000 cells/well), cultured in DMEM containing 10% FBS, and incubated at 37° C., 5% CO2. On the following day, test compounds were diluted with assay media and added to the appropriate wells (final DMSO concentration in the cell culture medium was 0.5%). Assay reference positive control was included in each run to ensure assay performance. Cells were incubated at 37° C., 5% CO2 for 72 hours, at which time the cells were still sub-confluent. The antiviral activity was determined by measuring replicon reporter firefly luciferase activity using Bright Glo kit in accordance with the protocol provided by the supplier (Promega). The toxicity of the test compounds was assessed by CytoTox-1 cell proliferation assay (Promega). The half maximal effective concentration (EC50) and the half maximal toxic concentration (TC50) values were calculated using the GraphPad Prism software.

[2] = Nucleoside phosphoester stability in simulated intestinal fluid; assay type: in vitro ADME
Description: Test compounds at 2 μM were incubated at 37° C. with simulated intestinal fluid (SIF), which contains 0.68% (w/v) monobasic potassium phosphate and 1% (w/v) pancreatin in ultra-pure water (pH 6.8). Duplicate samples were used. Samples were removed at 0, 15, 30, 60, 120, 360 and 1440 min, immediately mixed with cold acetonitrile containing an internal standard (IS), and stored at −80° C. before analysis. Chlorambucil was used as a positive control. Samples were analyzed by a LC/MS/MS method, and disappearance of test compound was assessed by comparison of peak area ratios of analyte/IS and reported as % test compound remaining at each time point.

[3] = system: GT3a S282T NS5B mutant replicon; test: HCV NS5B mutant replicon assay, GT3a S282T; assay type: cell-based; details: Hepatitis C virus, Huh-7, 72 h, read-out: GT3a S282T EC50
Description: as §1, §2, §3, §4

[4] = system: GT1b L159F NS5B mutant replicon; test: HCV NS5B mutant replicon assay, GT1b L159F; assay type: cell-based; details: Hepatitis C virus, Huh-7, 72 h, read-out: GT1b L159F EC50
Description: as §1, §3, §4

[5] = Nucleoside phosphoester stability in fetal bovine serum; assay type: in vitro ADME; details: 100 μM, 37° C.
Description: In another test, mononucleotide stock solutions were prepared at 10 mM in DMSO, and 10 μL of each stock solution was added to 1 mL of fetal bovine serum (FBS) to provide 100 μM of final compound concentration. These samples incubated for 24 h in a 37° C. water bath and 100 μL aliquots removed at t=0, 1, 2, 4, 6 and 24 hours. Individual samples were precipitated with 200 μL cold acetonitrile, the debris was pelleted at 14K RPM for 30 min at 4° C., and the supernatant was removed and subjected to LCMS analysis as described below.
Mobile phase A: 95:5 H2O:acetonitrile, 10 mM ammonium acetate, 0.01% formic acid
Mobile phase B: 95:5 acetonitrile:H2O, 10 mM ammonium acetate, 0.01% formic acid
Extracted ion chromatograms generated using M+1H and ammonium adduct for each compound.

SMILES | EC50 [1] | EC50 [3] | EC50 [4] | % t = 0 ([5]; 0 hours) | % t = 0 ([5]; 1 hour) | % t = 0 ([5]; 2 hours) | % t = 0 ([5]; 4 hours) | % t = 0 ([5]; 6 hours) | % t = 0 ([5]; 24 hours) | also measured
CC(C)(C)SSc1ccccc1CCOP1(=O)OC[C@H]2O[C@@H](n3ccc(=O)[nH]c3=O)[C@](C)(F)[C@@H]2O1 (single isomer, unassigned) [Compound 7A] | 15 nM | 44 nM | 15 to 17 nM | 100.0% | 101.0% | 101.0% | 100.9% | 92.5% | 87.9% | % Remaining ([2]; simulated gi fluid, 0 h, 2 μM, pH 6.8): 100.00%; % Remaining ([2]; simulated gi fluid, 0.25 h, 2 μM, pH 6.8): 102.65%; % Remaining ([2]; simulated gi fluid, 0.5 h, 2 μM, pH 6.8): 104.34%; % Remaining ([2]; simulated gi fluid, 1 h, 2 μM, pH 6.8): 111.04%; % Remaining ([2]; simulated gi fluid, 2 h, 2 μM, pH 6.8): 101.89%; % Remaining ([2]; simulated gi fluid, 6 h, 2 μM, pH 6.8): 121.95%; % Remaining ([2]; simulated gi fluid, 24 h, 2 μM, pH 6.8): 51.70%
CC(C)OC(=O)[C@H](C)N[P@](=O)(OC[C@H]1O[C@@H](n2ccc(=O)[nH]c2=O)[C@](C)(F)[C@@H]1O)Oc1ccccc1 [sofosbuvir, reference compound] | 134 nM | 84 to 572 nM | 63 nM | 100.0% | 96.2% | 96.5% | 89.0% | 91.6% | 102.2% | % Remaining ([2]; simulated intestinal fluid pH 6.8, 2 μM, 37° C., 0 min): 100.00%; % Remaining ([2]; simulated intestinal fluid pH 6.8, 2 μM, 37° C., 15 min): 5.57%; % Remaining ([2]; simulated intestinal fluid pH 6.8, 2 μM, 37° C., 30 min): 0.00%; % Remaining ([2]; simulated intestinal fluid pH 6.8, 2 μM, 37° C., 60 min): 0.00%; % Remaining ([2]; simulated intestinal fluid pH 6.8, 2 μM, 37° C., 120 min): 0.00%; % Remaining ([2]; simulated intestinal fluid pH 6.8, 2 μM, 37° C., 360 min): 0.00%; % Remaining ([2]; simulated intestinal fluid pH 6.8, 2 μM, 37° C., 1440 min): 0.00%
